Measured values reported in patent US9006487B2, “Amine-containing lipids and uses thereof” (Massachusetts Institute of Technology, priority 2005, dated 2015).

Key:
Format in all cases: cell-based
[1] = DNA delivery: raw luciferase expression (relative light units) of best-transfecting lipids; settings: 300 ng of DNA per well
Protocol: Raw values for luciferase expression (relative lights units) of best-transfecting lipids at lipid/DNA (w/w) ratios listed. 300 ng of DNA was added per well.

cos-7 cells = assay: DNA transfection: luciferase expression relative to Lipofectamine 2000; settings: 300 ng of DNA per well
Procedure, shortened: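 Lipid/DNA complexes, 300 ng luciferase DNA per well at 2.5-25 w/w lipid:DNA, were formed in sodium acetate/Optimem and added to overnight-seeded cos-7 cells. Luciferase was measured by Bright-Glo luminescence after 48 hours and quantified against an enzyme standard curve. Values are expressed as % of Lipofectamine 2000 at 2.5 w/w.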

[2] = system: renilla and firefly luciferases; assay: siRNA delivery: reporter-protein (renilla luciferase) knockdown relative to Lipofectamine 2000, firefly luciferase as viability control; settings: 50 ng of siRNA per well
Protocol: Reporter-protein knockdown achieved by the top transfecting lipids relative to Lipofectamine™ 2000 (where negative values indicate improved knockdown). The assay accounts for toxicity, monitoring expression of both renilla and firefly luciferases, where the latter serves as viability control. For each lipid, 50 ng of siRNA was added per well at specific lipid/RNA w/w ratios (from top to bottom: 2.5, 5, 10, 15).

For `CCCCCCCCCCCCNC(=O)CCN(C)CCN(CCC(=O)NCCCCCCCCCCCC)CCC(=O)NCCCCCCCCCCCC` [ND95], the “Raw values for luciferase expression” value ([1]; lipid/DNA 2.5 w/w) was 2875811 relative lights units, the “Raw values for luciferase expression” value ([1]; lipid/DNA 5 w/w) was 4619654 relative lights units and the “Raw values for luciferase expression” value ([1]; lipid/DNA 10 w/w) was 7977064 relative lights units. For the same compound, the “Raw values for luciferase expression” value ([1]; lipid/DNA 15 w/w) was 10279185 relative lights units, the “luciferase expression (second part of table, values relative to LIPO2000)” value (cos-7 cells; lipid/DNA 2.5 w/w) was 11.3 and the “luciferase expression (second part of table, values relative to LIPO2000)” value (cos-7 cells; lipid/DNA 5 w/w) was 30.9. For the same compound, the “luciferase expression (second part of table, values relative to LIPO2000)” value (cos-7 cells; lipid/DNA 10 w/w) was 37.6, the “luciferase expression (second part of table, values relative to LIPO2000)” value (cos-7 cells; lipid/DNA 15 w/w) was 53.4 and the “luciferase expression (second part of table, values relative to LIPO2000)” value (cos-7 cells; lipid/DNA 20 w/w) was 37.8. The “luciferase expression (second part of table, values relative to LIPO2000)” value (cos-7 cells; lipid/DNA 25 w/w) was 54.0, the “Reporter-protein knockdown relative to Lipofectamine 2000 (negative values indicate improved knockdown)” value ([2]; lipid/RNA 2.5 w/w) was 19.8058 and the “Reporter-protein knockdown relative to Lipofectamine 2000 (negative values indicate improved knockdown)” value ([2]; lipid/RNA 5 w/w) was 8.319. For the same compound, the “Reporter-protein knockdown relative to Lipofectamine 2000 (negative values indicate improved knockdown)” value ([2]; lipid/RNA 10 w/w) was −5.205 and the “Reporter-protein knockdown relative to Lipofectamine 2000 (negative values indicate improved knockdown)” value ([2]; lipid/RNA 15 w/w) was −7.163.
